Data from patent US20240002437A1, “COMPOSITIONS AND METHODS OF TREATING INFLAMMATORY LUNG DISEASES” (priority 2020, published 2024).

Legend:
TRPV4 = molecular target: T1, TRPV4 (Mus musculus, UniProt Q9EPK8); conditions: mice treated with the TRPV4 antagonist; literature (Yin 2016); only protective if given preventatively; cited from earlier work
T1 construct: host or cells: mice (lung), cited studies

NOS-derived superoxide = NOS-derived superoxide by EPR (eNOS uncoupling) in PAEC; assay type: cell-based, ovine; conditions: PMA
Description: (§1) Primary cultures of ovine pulmonary arterial endothelial cells (PAEC) were isolated as described previously (L. K. Kelly, Am J Physiol Lung Cell Mol Physiol, 286(5), L984-91 (2004)). Briefly, cells were maintained in Dulbecco's modified Eagle medium (DMEM) supplemented with 10% fetal calf serum (Hyclone, Logan, UT), antibiotics/antimycotic (500 IU Penicillin, 500 μg/ml Streptomycin, 1.25 μg/ml Amphotericin B; MediaTech, Herndon, VA) at 37° C. in a humidified atmosphere with 5% CO2 and 95% air. Cells were used for experiments between passages 9-14, seeded at ˜50% confluence, and utilized when fully confluent.
Superoxide levels were estimated by electron paramagnetic resonance (EPR) assay using the spin-trap compound 1-hydroxy-3-methoxycarbonyl-2,2,5,5-tetramethylpyrrolidine HCl (CMH, Axxora) as described previously. Superoxide in PAEC was trapped by incubating PAEC with 20 μl of CMH stock solution (20 mg/ml) for 1 h, followed by trypsinization and centrifugation at 500 g. The cell pellet was suspended in 35 μl DPBS and loaded into a capillary tube which was then analyzed with a MiniScope MS200 EPR machine (Magnettech, Berlin, Germany). Pre-incubating cells or tissue with 100 μM ethylisothiourea (ETU, Sigma-Aldrich) for 30 min followed by incubation with CMH measured NOS-derived superoxide. EPR spectra were analyzed using ANALYSIS v.2.02 software (Magnettech). Differences between levels of samples incubated in the presence and absence of ETU were used to determine NOS-dependent superoxide generation.

PAEC = assay: Mitochondrial bioenergetics (XF24 Analyzer, OCR) in PAEC; assay type: cell-based, ovine; conditions: PMA
Description: as §1
The XF24 Analyzer (Seahorse Biosciences) and XF CELL MITO STRESS™ Test Kit (#101706-100; Seahorse Biosciences) were used for the mitochondrial bioenergetic analyses. The optimum number of cells/well was determined to be 75,000/0.32 cm^2. At the end of each study, the XF24 culture microplates were incubated in a CO2-free XF prep station at 37° C. for 45 min to allow temperature and pH calibration. Subsequently, each well was sequentially injected Oligomycin (1 μM final concentration), carbonyl cyanide 4-(trifluoromethoxy) phenylhydrazone (FCCP, 1 μM final concentration), and Rotenone+antimycin A (1 μM final concentration of each) and measured the oxygen consumption rate (OCR). These agents were used to determine basal mitochondrial respiration, reserve respiratory capacity and maximal respiratory capacity measurements in pmols/min of oxygen consumed.

[1] = test system: eNOS phosphorylation at T495; assay: Western blot of pT495-eNOS in PAEC; assay type: cell-based, ovine; conditions: PMA 100 nM, 10, 30 and 60 minutes
Description: as §1
Protein extracts were prepared using lysis buffer (50 mM Tris-HCl, pH 7.6, 0.5% Triton X-100, 20% glycerol) containing HALT™ protease inhibitor cocktail (Pierce Laboratories, Rockford, IL). The extracts were then subjected to centrifugation (15,000 g for 15 min at 4° C.). Supernatant fractions were assayed for protein concentration using the Bradford reagent (Bio-Rad, Richmond, CA) then used for Western blot analyses. Protein extracts (25-50 μg) were separated on Long-Life 4-20% Tris-SDS-Hepes gels and electrophoretically transferred to IMMUNO-BLOT™ PVDF membrane (Bio-Rad Laboratories, Hercules, CA) Immunoblotting was then carried out using the appropriate antibodies in Tris-base buffered saline with 0.1% Tween 20 and 5% nonfat milk. After washing, the membranes were probed with horseradish peroxidase-conjugated goat antiserum to rabbit or mouse. Reactive bands were visualized using chemiluminescence (Super Signal West Femto; Pierce, Rockford, IL) on a LI-COR Odyssey image station (Lincoln, NE). Bands were quantified using LI-COR Image Station software. Loading was normalized by reprobing the membranes with an antibody specific to β-actin.

[2] = test system: mitochondrial redistribution of eNOS; assay: Immunofluorescent microscopy of eNOS mitochondrial redistribution in PAEC; assay type: cell-based, ovine; conditions: PMA
Description: as §1
PAEC were grown on cover glass for three days after reaching 100% confluence, and fixed with 4% paraformaldehyde (Thermo Fisher Scientific) for 30 min, permeabilized with 100% cold methanol at −20° C. for 5 min Cell then blocked with 1% BSA for 1 hour, and later incubated with first antibody overnight at 4° C. then secondary antibody at room temperature for 1 hour. Finally, cells were mounted on microscope slides using ProLong Glass Antifade Mountant, (Invitrogen, Carlsbad, CA, Cat #P36980). […] The images were analyzed with ImagePro Plus 7.0 (W. Casavan, Microscopy Today, 11(6), 48-50 (2003)) or ImageJ software to evaluate the colocalization of fluorescent.

T1 sequence (Q9EPK8 whole entry): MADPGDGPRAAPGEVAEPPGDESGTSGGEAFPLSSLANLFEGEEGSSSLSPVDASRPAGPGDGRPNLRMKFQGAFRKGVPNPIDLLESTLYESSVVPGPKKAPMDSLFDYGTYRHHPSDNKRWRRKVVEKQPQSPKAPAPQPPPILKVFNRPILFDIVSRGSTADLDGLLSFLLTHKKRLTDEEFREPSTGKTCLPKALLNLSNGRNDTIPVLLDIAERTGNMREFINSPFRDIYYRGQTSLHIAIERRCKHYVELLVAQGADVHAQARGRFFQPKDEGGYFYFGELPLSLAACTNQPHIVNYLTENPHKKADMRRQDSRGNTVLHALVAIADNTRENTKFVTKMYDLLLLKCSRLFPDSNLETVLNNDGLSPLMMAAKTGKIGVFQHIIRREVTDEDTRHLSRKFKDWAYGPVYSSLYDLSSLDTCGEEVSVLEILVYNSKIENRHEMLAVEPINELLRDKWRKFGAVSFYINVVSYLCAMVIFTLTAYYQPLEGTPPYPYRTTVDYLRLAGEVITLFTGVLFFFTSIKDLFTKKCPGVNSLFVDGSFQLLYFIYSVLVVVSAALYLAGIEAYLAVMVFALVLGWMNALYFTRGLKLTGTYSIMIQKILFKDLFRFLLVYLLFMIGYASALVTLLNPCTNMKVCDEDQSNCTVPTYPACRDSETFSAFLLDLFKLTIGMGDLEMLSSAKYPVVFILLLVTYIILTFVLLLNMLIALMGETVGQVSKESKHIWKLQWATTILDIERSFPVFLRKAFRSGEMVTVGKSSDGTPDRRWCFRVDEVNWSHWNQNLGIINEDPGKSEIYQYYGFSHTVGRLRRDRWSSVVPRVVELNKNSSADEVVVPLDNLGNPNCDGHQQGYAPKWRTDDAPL

| Structure (SMILES) | protection against acid-induced ALI (TRPV4) | eNOS uncoupling (NOS derived superoxide) (NOS-derived superoxide) | mitochondrial bioenergetics (OCR, reserve and maximal respiratory capacities) (PAEC) | pT495-eNOS levels [1] | mitochondrial redistribution of eNOS [2] |
| --- | --- | --- | --- | --- | --- |
| O=C(NC1(c2ccccc2)CC1)c1c(CN2CCC(N3CCCCC3)CC2)c(-c2cccc(C(F)(F)F)c2)nc2cc(Br)ccc12 [GSK2193874] | protected against acid-induced ALI |  |  |  |  |
| CCCCCCCCCCCCCC(=O)O[C@@H]1[C@@H](C)[C@@]2(O)[C@@H](C=C(CO)C[C@]3(O)C(=O)C(C)=C[C@@H]23)[C@@H]2C(C)(C)[C@]12OC(C)=O [PMA, Phorbol 12-myristate 13-acetate] |  | eNOS uncoupling | disruption of mitochondrial bioenergetics | increases in pT95-eNOS levels | induced the mitochondrial redistribution of eNOS |
